Results published in patent publication US7547686B2, “Combretastatin A-3 prodrug” (Arizona Board of Regents, a body corporate of the State of …, priority 2001, dated 2009).

Legend:
[1] = type: physicochemical; conditions: at 25° C.
[2] = test system: human cancer cell lines and murine P388 lymphocytic leukemia cell line; assay: Cancer cell line inhibitory activity, panel as a whole (Table II); type: cell-based
[3] = test system: Stenotrophomonas maltophilia, Micrococcus luteus, Staphylococcus aureus, Escherichia coli, Enterobacter cloacae, Enterococcus faecalis, Streptococcus …; conditions: Pettit et al., 2000; cited from earlier work
[4] = test system: Cryptococcus neoformans; assay: Disk diffusion assay, Cryptococcus neoformans; type: cell-based
From the text: (§1) Antimicrobial susceptibility testing. Compounds were screened against the bacteria Stenotrophomonas maltophilia, Micrococcus luteus, Staphylococcus aureus, Escherichia coli, Enterobacter cloacae, Enterococcus faecalis, Streptococcus pneumoniae, Neisseria gonorrhoeae, and the fungi Candida albicans and Cryptococcus neoformans, according to established disk susceptibility testing protocols (National Committee for Clinical Laboratory Standards 1997. Performance standards for antimicrobial disk susceptibility tests-sixth edition: Approved Standard M2-A6, NCCLS, Wayne, Pa.)

[5] = test system: Stenotrophomonas maltophilia, Micrococcus luteus, Staphylococcus aureus, Escherichia coli, Enterobacter cloacae, Enterococcus faecalis, Streptococcus …; assay: Antimicrobial disk susceptibility testing, bacteria and fungi panel; type: cell-based
From the text: as §1

Compound	Solubility [1] [mg/mL]	also measured
COc1ccc(/C=C\c2cc(OC)c(OC)c(OP(=O)([O-])O)c2)cc1OP(=O)([O-])O.[Li+].[Li+] [Compound 10b]	>100	
COc1ccc(/C=C\c2cc(OC)c(OC)c(OP(=O)([O-])O)c2)cc1OP(=O)([O-])O.[K+].[K+] [Compound 10c]	>228	cancer cell line inhibitory activity (in words) [2]: good cancer cell line inhibitory activity
COc1ccc(/C=C/c2cc(OC)c(OC)c(OC)c2)c(O)c1O [(E)-combretastatin A-1]		antibacterial and antifungal activities (literature) [3]: antibacterial and antifungal activities
C1COCCN1.C1COCCN1.COc1ccc(C=Cc2cc(OC)c(OC)c(OP(=O)(O)O)c2)cc1OP(=O)(O)O [Compound 10k]	>40	
COc1ccc(/C=C\c2cc(OC)c(OC)c(OP(=O)(O)O)c2)cc1OP(=O)(O)O.NC(=O)c1cccnc1.NC(=O)c1cccnc1.NC(=O)c1cccnc1.NC(=O)c1cccnc1 [Compound 10l]	27	
COc1ccc(/C=C\c2cc(O)c(OC)c(OC)c2)cc1O [Compound 2a, Combretastatin A-3]		MIC [4]: 50-100 μg/disk
COc1ccc(/C=C\c2cc(OC)c(OC)c(OP(=O)([O-])[O-])c2)cc1OP(=O)([O-])[O-].[Mg+2].[Mg+2] [Compound 10h]	10	
COc1ccc(/C=C\c2cc(OC)c(OC)c(OP(=O)([O-])O)c2)cc1OP(=O)([O-])O.[Na+].[Na+] [Compound 10a, Sodium combretastatin A-3 3,3′-O-phosphate]	>218	activity in disk diffusion assays [5]: not active; cancer cell line inhibitory activity (in words) [2]: good cancer cell line inhibitory activity
COc1ccc(/C=C\c2cc(OC)c(OC)c(OP(=O)([O-])O)c2)cc1OP(=O)([O-])O.[Rb+].[Rb+] [Compound 10d]	>60	
